Entries after “also recorded” stand apart in the source; their conditions may differ.
Tests used:
Assay type in all cases: cell-based, rat
AY-27 cells [1] = experiment: Assay of present invention (motility towards agarose chemo-attractant matrix); details: compared to Mock-TGF and SdM
Protocol: Ten millimetre coverslips were seeded with AY-27 cells at a density of 5×10^5 and grown to 100% confluency in 12-well plates. The AY-27 cells at 100% confluency on 10 mm coverslips were removed (A) and washed vigorously using SdM medium (B).
In a separate 12-well culture plate, 1 ml of heated 2% agarose matrix consisting of 50% FCS and 50% supplemented RPMI thoroughly mixed was pipetted into each well, and allowed to cool and solidify (C).
A sterile 12 mm diameter metal ring was then used to cut out a circular area in the centre of the matrix (D & E) to provide a cell receiving zone and also to expose a portion of the supporting substrate to form the bridging portion between the cell receiving zone and the agent receiving matrix.
AY-27 cells on the 10 mm coverslip were then placed into the empty tissue receiving zone from which the agarose had been removed (F) such that the sample is spaced apart from and surrounded by the agarose (chemo-attractant agent receiving matrix).
An indentation provided in the cell receiving zone, allows reproducible locating of the coverslip including the cells to be tested in the cell receiving zone. The indentation is of suitable depth such that the top surface of the located slide is substantially flush with surrounding surface of the receiving surface. […]

AY-27 cells [2] = experiment: Conventional scratch wound assay; details: compared to SdM and Mock-TGF
Protocol: Sub-confluent AY-27 cells were detached and 5×10^6 were seeded into 6-well tissue culture plates. The cells were grown to 100% confluency before treatment with Mock-TGF, SdM or 3 ng/ml TGF-β1 in duplicates for 24 h and 48 h. An in vitro “scratch wound” was created by scraping the confluent cell monolayer with a sterile pipette tip to make an approximate 1.0 mm gap. Three fixed points were marked in each well and phase-contrast images were captured at these same points over the 24 h and 48 h treatment course. The area of cells that had migrated beyond the ‘wound’ was estimated by superimposing a 5 mm×5 mm grid over the ‘wound’, and this was expressed as percentage when divided with the area of the ‘wound’.
(§1) FIG. 10 details results of a conventional motility assay (A) and the Matrigel invasion assay (B). […] Cells were treated with Mock-TGF (i), SdM (ii) or 3 ng.ml TGF-β1 (iii) and images were captured after 24 h and 48 h. The percentage of wound healing was calculated by counting the number of boxes at least half covered by cells in the 5 mm×5 mm grid-rule (A). […] Cells were treated with Mock-TGF (i), SdM (ii) or TGF-β1 (iii) and cells that passed successfully through the matrigel membrane after 24 h and after 48 h were Giemsa stained and enumerated.

AY-27 cells [3] = experiment: Conventional Matrigel invasion assay; details: 24 h and 48 h, compared to Mock-TGF and SdM, p<0.05 Student's t-test
Protocol: FCS (10%) in 0.75 ml RPMI-1640 acted as the chemo-attractant. This was added to the lower compartment of 24-well BioCoat Matrigel invasion chambers (Becton Dickinson Labware, Bedford, Mass.) with an 8-μm pore polycarbonate filter coated with Matrigel. In the upper compartment, 8×10^5 cells/well in SdM were placed in triplicate wells and incubated for 24 h and 48 h at 37° C. in a humidified incubator with 5% CO2. After incubation, the cells that had passed through the filter into the lower wells were stained with Speedy-Diff Rapid Giemsa (Clin-Tech Ltd, Essex, UK. #61078, #61079, #61080) and counted by assessing 10 random high power fields images using ×400 magnification on a Leitz Labrodux K (Germany) light microscope.
as §1

TGF-β1: Recombinant human TGF-β1 (R&D systems), a known promoter to tumour progression
numbers of migrating cells (grid boxes covered) (AY-27 cells [1]; 3 ng/ml TGF-β1, 24 h): no significant differences
numbers of migrating cells (grid boxes covered) (AY-27 cells [1]; 3 ng/ml TGF-β1, 48 h, p<0.05 student t-test): significantly more cells had migrated; also recorded: significantly greater numbers
motility / wound closure (AY-27 cells [2]; 3 ng/ml TGF-β1, 24 h): earlier wound closure
motility / wound closure (AY-27 cells [2]; 3 ng/ml TGF-β1, 48 h): this effect did not persist
cells migrated across the matrigel (AY-27 cells [3]): Significantly more cells were present in the membrane; also recorded: significantly more TGF-β1 treated cells migrated across the matrigel
